Here are results for 13 molecules from patent US20230151003A1, “COMPOUNDS AND METHODS OF USE” (Exelixis, Inc., priority 2020, published 2023).

Common to all, as to assay type: biochemical
In assay [1] the target is KDR (Homo sapiens, UniProt P35968). As to the kind of experiment: Human KDR kinase assay (HTRF KinEase). Also on record: Human KDR (residues 790-1356; CarnaBio, 0.1 ng/ well); purchased CarnaBio. As to conditions: Table 2 Biological Activities, ATP at Km (4.0 μM). The procedure: (§1) Kinase activity and compound inhibition were investigated using the HTRF® KinEase assay (Cisbio Cat #62TKOPEB) per manufacturer's instructions. In short, compounds were delivered in 300 nL volumes at 10 different concentrations in DMSO (3% final) to empty 384-well assay plates (Corning cat #3824). A mixture of enzyme, 1 μM biotynlated peptide substrate, and buffer in 10 μL volume was added. The assay was started upon the addition of ATP (at Km). The 10 μL reaction was incubated at room temperature. The reaction was stopped upon the addition of detection buffer containing streptavidin-XL665 (5 μL) and TK antibody-Eu3+ (5 μL). After a 60 min incubation at room temperature, the fluorescence at 665 nm and 620 nm was read on an Envision microplate reader (Perkin Elmer). Kinase activity normalized to DMSO (100% activity) and reference compound at 1 μM and (0% activity) was calculated using the fluorescence ratio […]. IC50 values were calculated by nonlinear regression analysis using a 4-parameter logistic curve fit in ActivityBase XE (IDBS).
Chain of KDR (P35968 790-1356): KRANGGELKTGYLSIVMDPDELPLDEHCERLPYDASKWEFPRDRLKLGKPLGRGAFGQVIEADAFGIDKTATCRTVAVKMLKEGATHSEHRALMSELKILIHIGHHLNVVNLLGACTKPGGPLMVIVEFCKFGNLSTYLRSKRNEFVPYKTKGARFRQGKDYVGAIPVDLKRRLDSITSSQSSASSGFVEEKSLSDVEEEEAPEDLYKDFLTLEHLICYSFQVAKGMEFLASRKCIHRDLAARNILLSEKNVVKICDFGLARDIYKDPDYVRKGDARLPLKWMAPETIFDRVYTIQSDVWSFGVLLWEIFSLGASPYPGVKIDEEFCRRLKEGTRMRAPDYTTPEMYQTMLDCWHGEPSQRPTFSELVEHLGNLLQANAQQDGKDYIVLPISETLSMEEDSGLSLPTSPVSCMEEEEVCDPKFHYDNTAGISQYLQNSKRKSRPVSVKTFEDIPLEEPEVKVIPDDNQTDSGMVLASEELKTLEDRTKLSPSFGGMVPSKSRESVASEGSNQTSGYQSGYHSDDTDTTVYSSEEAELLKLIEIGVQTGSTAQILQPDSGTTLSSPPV
Human KDR (residues 790-1356; CarnaBio, 0.1 ng/ well) was incubated with enzymatic buffer (Cisbio) supplemented with 5 mM MgCl2, 1 mM MnCl2, and 1 mM DTT. The mixture was added to the pre-plated compounds. The reaction was initiated upon addition of ATP at Km (4.0 μM). The reaction was incubated at room temperature for 40 min and stopped upon the addition of SA-XL665 and TK-antibody both diluted in EDTA-containing kinase detection buffer (Cisbio). The kinase activity was calculated as stated above and the IC50 values were reported.
(Time-resolved FRET reads energy transfer from a long-lived donor to a nearby acceptor.)

For assay [2], the target named is T1, Human MER (Homo sapiens, UniProt Q12866).
T1 construct: Human MER (residues 528-999; CarnaBio, 1 ng/ well); purchased CarnaBio
T1 sequence (Q12866 528-999): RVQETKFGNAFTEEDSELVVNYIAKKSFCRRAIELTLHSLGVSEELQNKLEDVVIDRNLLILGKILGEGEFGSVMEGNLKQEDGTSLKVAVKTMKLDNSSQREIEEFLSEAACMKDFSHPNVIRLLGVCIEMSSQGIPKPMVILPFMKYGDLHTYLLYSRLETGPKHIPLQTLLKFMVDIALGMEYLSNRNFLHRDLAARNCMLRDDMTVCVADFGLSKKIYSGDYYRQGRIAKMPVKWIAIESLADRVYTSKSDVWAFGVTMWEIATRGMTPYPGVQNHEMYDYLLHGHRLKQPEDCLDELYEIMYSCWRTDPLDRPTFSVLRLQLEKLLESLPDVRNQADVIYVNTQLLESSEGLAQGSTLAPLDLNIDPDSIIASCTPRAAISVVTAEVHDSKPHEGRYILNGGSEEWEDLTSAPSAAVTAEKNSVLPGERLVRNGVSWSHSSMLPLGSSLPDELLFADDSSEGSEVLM
As to the kind of experiment: Human MER kinase assay (HTRF KinEase). As to conditions: Table 2 Biological Activities, ATP at Km (40 μM). The procedure: as §1
Human MER (residues 528-999; CarnaBio, 1 ng/ well) was incubated with enzymatic buffer (Cisbio) supplemented with 5 mM MgCl2 and 1 mM DTT. The mixture was added to the pre-plated compounds. The reaction was initiated upon addition of ATP at Km (40 μM). The reaction was incubated at room temperature for 60 min and stopped upon the addition of SA-XL665 and TK-antibody both diluted in EDTA-containing kinase detection buffer (Cisbio). The kinase activity was calculated as stated above and the IC50 values were reported.

Assay [3] concerns the target T2, Human AXL (Homo sapiens, UniProt P30530).
T2 construct: Human AXL (residues 464-885; CarnaBio, 1 ng/ well); purchased CarnaBio
T2 sequence (P30530 464-885 isoform P30530-2): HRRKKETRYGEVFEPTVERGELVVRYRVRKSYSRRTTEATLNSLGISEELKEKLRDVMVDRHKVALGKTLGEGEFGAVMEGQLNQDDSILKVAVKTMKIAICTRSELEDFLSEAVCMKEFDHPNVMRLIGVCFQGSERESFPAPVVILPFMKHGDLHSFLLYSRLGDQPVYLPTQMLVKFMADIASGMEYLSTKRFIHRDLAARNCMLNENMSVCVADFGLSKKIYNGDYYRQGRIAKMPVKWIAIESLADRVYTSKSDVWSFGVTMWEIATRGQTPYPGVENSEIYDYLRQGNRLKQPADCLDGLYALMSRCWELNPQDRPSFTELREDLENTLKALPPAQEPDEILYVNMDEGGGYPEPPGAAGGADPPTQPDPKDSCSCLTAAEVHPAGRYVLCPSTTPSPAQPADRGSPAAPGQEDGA
Nature of the assay: Human AXL kinase assay (HTRF KinEase). The settings on record: Table 2 Biological Activities, ATP at Km (1.0 μM). On the procedure: as §1
Human AXL (residues 464-885; CarnaBio, 1 ng/ well) was incubated with enzymatic buffer (Cisbio) supplemented with 5 mM MgCl2, 1 mM DTT, and Supplemental Enzymatic Buffer (SEB; Cisbio). The mixture was added to the pre-plated compounds. The reaction was initiated upon addition of ATP at Km (1.0 μM). The reaction was incubated at room temperature for 50 min and stopped upon the addition of SA-XL665 and TK-antibody both diluted in EDTA-containing kinase detection buffer (Cisbio). The kinase activity was calculated as stated above and the IC50 values were reported.

Assay [4] deals with Met (Homo sapiens, UniProt P08581). As to the kind of experiment: Human MET kinase assay (HTRF KinEase). The settings on record: Table 2 Biological Activities, ATP at Km (3.0 μM), read-out: c-Met IC50. Further details: Human MET (residues 956-1390; CarnaBio, 0.1 ng/ well); purchased CarnaBio. On the procedure:
as §1
Human MET (residues 956-1390; CarnaBio, 0.1 ng/ well) was incubated with enzymatic buffer (Cisbio) supplemented with 5 mM MgCl2, 1 mM DTT and 1 mM MnCl2. The mixture was added to the pre-plated compounds. The reaction was initiated upon addition of ATP at Km (3.0 μM). The reaction was incubated at room temperature for 40 min and stopped upon the addition of SA-XL665 and TK-antibody both diluted in EDTA-containing kinase detection buffer (Cisbio). The kinase activity was calculated as stated above and the IC50 values were reported.

pIC50: −log10 of the molar value.

Chain of Met (P08581 956-1390): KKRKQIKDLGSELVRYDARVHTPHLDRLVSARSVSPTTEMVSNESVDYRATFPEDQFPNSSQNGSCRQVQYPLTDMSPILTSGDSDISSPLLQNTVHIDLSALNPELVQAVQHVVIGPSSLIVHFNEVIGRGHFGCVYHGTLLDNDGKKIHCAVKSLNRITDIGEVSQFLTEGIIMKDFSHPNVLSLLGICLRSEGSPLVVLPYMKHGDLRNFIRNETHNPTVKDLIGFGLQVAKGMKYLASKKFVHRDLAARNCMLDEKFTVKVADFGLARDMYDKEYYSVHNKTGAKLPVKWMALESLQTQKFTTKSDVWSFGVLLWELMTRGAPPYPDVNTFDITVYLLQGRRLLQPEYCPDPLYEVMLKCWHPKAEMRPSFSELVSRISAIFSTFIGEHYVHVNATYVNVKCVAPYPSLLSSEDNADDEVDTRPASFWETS

On to `COc1cc2nccc(Oc3ccc(NC(=O)c4c(C)n(C)cc(-c5ccc(F)cn5)c4=O)cc3F)c2nc1OC` [Compound 71, N-[4-[(6,7-Dimethoxy-1,5-naphthyridin-4-yl)oxy]-3-fluorophenyl]-5-(5-fluoropyridin-2-yl)-1,2-dimethyl-4-oxopyridine-3-carboxamide], for which the pIC50 is 6.00 to 6.52 in assay [1] and at least 7.00 in assay [2].

As for `COc1cnc2c(Oc3ccc(NC(=O)c4ccc(C)n(-c5ccc(F)cn5)c4=O)cc3F)ccnc2c1` [Compound 45, N-[3-Fluoro-4-[(7-methoxy-1,5-naphthyridin-4-yl)oxy]phenyl]-1-(5-fluoropyridin-2-yl)-6-methyl-2-oxopyridine-3-carboxamide], the pIC50 was at least 7.00 in assay [3], 6.52 to 7.00 in assay [1], at least 7.00 in assay [4] and at least 7.00 in assay [2].

For `COCCOc1cc2nccc(Oc3ccc(NC(=O)c4ccc(C)n(-c5ccc(F)cn5)c4=O)cc3F)c2nc1OC` [Compound 50, N-[3-Fluoro-4-[[6-methoxy-7-(2-methoxyethoxy)-1,5-naphthyridin-4-yl]oxy]phenyl]-1-(5-fluoropyridin-2-yl)-6-methyl-2-oxopyridine-3-carboxamide], the negative logarithm of the IC50 (pIC50) in assay [3], in assay [1], in assay [4] and in assay [2] was at least 7.00 each time.

For the molecule `COc1cnc2c(Oc3ccc(NC(=O)c4c(C)n(C)cc(-c5ccc(F)cn5)c4=O)cc3F)ccnc2c1` [Compound 73, N-[3-Fluoro-4-[(7-methoxy-1,5-naphthyridin-4-yl)oxy]phenyl]-5-(5-fluoropyridin-2-yl)-1,2-dimethyl-4-oxopyridine-3-carboxamide], the negative logarithm of the IC50 (pIC50) in assay [1] was 6.00 to 6.52; in assay [4], 6.00 to 6.52; in assay [2], 6.52 to 7.00.

For `COc1cnc2c(Oc3ccc(NC(=O)c4ccc(C)n(-c5ncc(F)cc5C)c4=O)cc3F)ccnc2c1` [Compound 52, N-[3-Fluoro-4-[(7-methoxy-1,5-naphthyridin-4-yl)oxy]phenyl]-1-(5-fluoro-3-methylpyridin-2-yl)-6-methyl-2-oxopyridine-3-carboxamide], the pIC50 in assay [3] was at least 7.00; in assay [1] it was 6.00 to 6.52; in assay [4] it was at least 7.00; in assay [2] it was at least 7.00.

With `COc1ccc2nccc(Oc3ccc(NC(=O)c4ccc(C)n(-c5ccc(F)cn5)c4=O)cc3F)c2n1` [Compound 47, N-[3-Fluoro-4-[(6-methoxy-1,5-naphthyridin-4-yl)oxy]phenyl]-1-(5-fluoropyridin-2-yl)-6-methyl-2-oxopyridine-3-carboxamide], the pIC50 in assay [3] is at least 7.00; in assay [1], 6.00 to 6.52; in assay [4], 6.52 to 7.00; in assay [2], at least 7.00.

With `COc1cc2nccc(Oc3ccc(NC(=O)c4cc(C#N)c(C)n(-c5ccc(F)cn5)c4=O)cc3F)c2nc1OC` [Compound 56, 5-Cyano-N-[4-[(6,7-dimethoxy-1,5-naphthyridin-4-yl)oxy]-3-fluorophenyl]-1-(5-fluoropyridin-2-yl)-6-methyl-2-oxopyridine-3-carboxamide], the pIC50 in assay [1] is 6.00 to 6.52; in assay [4], at least 7.00; in assay [2], at least 7.00.

Regarding `COc1cc2nccc(Oc3ccc(NC(=O)c4c(C)ncc(-c5ccc(F)cn5)c4O)cc3F)c2nc1OC` [Compound 68, N-[4-[(6,7-Dimethoxy-1,5-naphthyridin-4-yl)oxy]-3-fluorophenyl]-5-(5-fluoropyridin-2-yl)-4-hydroxy-2-methylpyridine-3-carboxamide], the pIC50 in assay [3], in assay [1], in assay [4] and in assay [2] was at least 7.00 each time.

For `COc1cc2nccc(Oc3ccc(NC(=O)c4cc(C(C)=O)c(C)n(-c5ccc(F)cn5)c4=O)cc3F)c2nc1OC` [Compound 59, 5-Acetyl-N-[4-[(6,7-dimethoxy-1,5-naphthyridin-4-yl)oxy]-3-fluorophenyl]-1-(5-fluoropyridin-2-yl)-6-methyl-2-oxopyridine-3-carboxamide], the pIC50 in assay [3] is at least 7.00; in assay [1], 6.00 to 6.52; in assay [4], at least 7.00; in assay [2], at least 7.00.

With `COc1cc2nccc(Oc3ccc(NC(=O)c4ccc(C)n(-c5ncc(F)cc5C)c4=O)cc3F)c2nc1OC` [Compound 51, N-[4-[(6,7-Dimethoxy-1,5-naphthyridin-4-yl)oxy]-3-fluorophenyl]-1-(5-fluoro-3-methylpyridin-2-yl)-6-methyl-2-oxopyridine-3-carboxamide], the pIC50 in assay [3] is at least 7.00; in assay [1], 6.52 to 7.00; in assay [4], at least 7.00; in assay [2] it was at least 7.00.

Regarding `COc1cc2nccc(Oc3ccc(NC(=O)c4c(C)n(C)cc(-c5ccc(F)cn5)c4=O)cc3)c2nc1OC` [Compound 72, N-[4-[(6,7-Dimethoxy-1,5-naphthyridin-4-yl)oxy]phenyl]-5-(5-fluoropyridin-2-yl)-1,2-dimethyl-4-oxopyridine-3-carboxamide], the negative-log IC50 (pIC50) in assay [1] was 6.00 to 6.52; in assay [4] it was 6.00 to 6.52; in assay [2], 6.52 to 7.00.

Regarding `Cc1ccc(C(=O)Nc2ccc(Oc3ccnc4cnc(Cl)cc34)c(F)c2)c(=O)n1-c1ccc(F)cn1` [Compound 54A, N-[4-[(6-Chloro-1,7-naphthyridin-4-yl)oxy]-3-fluorophenyl]-1-(5-fluoropyridin-2-yl)-6-methyl-2-oxopyridine-3-carboxamide], the negative-log IC50 (pIC50) is 6.00 to 6.52 in assay [1], 6.52 to 7.00 in assay [4] and at least 7.00 in assay [2].

In the case of `COc1ccc2nccc(Oc3ccc(NC(=O)c4ccc(C)n(-c5ccc(F)cn5)c4=O)cc3F)c2c1` [Compound 49, N-[3-Fluoro-4-(6-methoxyquinolin-4-yl)oxyphenyl]-1-(5-fluoropyridin-2-yl)-6-methyl-2-oxopyridine-3-carboxamide], the pIC50 in assay [1] was 6.52 to 7.00; in assay [4], at least 7.00; in assay [2], at least 7.00.

One may read the pIC50 as the IC50 on a negative log10 scale, so that one unit is a factor of ten.
